Paper PMC6591177, “Small Molecule IL-36γ Antagonist as a Novel Therapeutic Approach for Plaque Psoriasis” (Scientific Reports, 2019)
Entries after “also recorded” stand apart in the source; their conditions may differ.

Tests used:
[1] = system: human IL-36γ evoked CXCL1 release from Human HaCaT cells; experiment: human IL-36γ evoked CXCL1 release, human HaCaT cells; assay type: cell-based; details: ± S.D.
Procedure: The immortalized human keratinocyte cell line HaCaT and mouse fibroblast NIH-3T3 cell line were maintained in culture in DMEM with 10% fetal bovine serum and 1% penicillin/streptomycin added (Sigma). Cells were seeded in 96-well tissue culture plates (Corning) at 25,000 cells per well and allowed to adhere and recover overnight at 37 °C in an incubator. Cells were rinsed with PBS (Sigma) and treated with cytokines diluted in 200 μL/well of the medium (DMEM with 0.5% FBS and 1% penicillin/streptomycin) as indicated. In inhibition mode, the agonist concentration used was at the EC80 for chemokine production and the cells were pre-treated with inhibitors for 30 min prior to adding the agonist. After 24 h of treatment, supernatants were collected and IL-8 and CXCL1[28] levels were assessed using a custom immunoassay (Meso Scale Discovery). EC50/IC50 values were estimated from a four-parameter logistic fit using Prism software (GraphPad).

human IL-36α = target: T1, human IL-36α (Homo sapiens, UniProt Q9UHA7); experiment: Thermal shift assay / affinity, human IL-36α; assay type: binding; details: thermal shift assay at 100 μM (Supplementary Fig. 4)
T1 construct: using recombinant truncated proteins
T1 sequence (Q9UHA7 6-158): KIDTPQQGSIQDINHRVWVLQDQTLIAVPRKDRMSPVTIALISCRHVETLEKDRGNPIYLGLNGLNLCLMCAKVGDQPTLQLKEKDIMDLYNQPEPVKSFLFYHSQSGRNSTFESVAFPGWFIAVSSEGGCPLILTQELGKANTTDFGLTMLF
Procedure: Thermal shift assays[30] were performed on a Roche LightCycler 480 instrument using Sypro Orange Dye (Invitrogen). Reactions consisted of 0.5–2 µM purified recombinant protein in PBS, pH 7.4, a 1/500 dilution of the stock Sypro Orange reagent, and 100 µM test compounds, resulting in a final DMSO concentration of 1%. The samples were heated from 20 °C to 95 °C at a rate of 0.25 °C per second.

human IL-36γ = target: T2, human IL-36γ (Homo sapiens, UniProt Q9NZH8); experiment: Isothermal titration calorimetry; assay type: binding; details: 25 °C, pH 7.5; read-out: KD (ITC)
T2 construct: His6-SUMO-human IL-36γ (18–169); His6-SUMO (N, cleaved yes); made in house; host or cells: E. coli BL21 (DE3)
T2 sequence (Q9NZH8 18-169): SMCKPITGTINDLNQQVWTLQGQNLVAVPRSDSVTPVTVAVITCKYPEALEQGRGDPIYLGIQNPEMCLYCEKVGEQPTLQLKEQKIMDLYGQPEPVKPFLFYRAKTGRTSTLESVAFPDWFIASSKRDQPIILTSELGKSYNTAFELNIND
Procedure: All experiments were carried out on a MicroCal^TM Auto-ITC200 at 25 °C in 50 mM HEPES (pH = 7.5), 150 mM NaCl, 0.5 mM TCEP, 2% DMSO. IL-36γ protein solution was buffer exchanged by gel filtration into the isothermal titration calorimetry (ITC) buffer and diluted to 40 µM. The titrations were conducted using an initial injection of 0.2 µL followed by 19 identical injections of 2 µL of 400 µM compound solution. Thermodynamic parameters were calculated using ∆G = ∆H − T∆S = −RTlnKB, where ∆G, ∆H and ∆S are the changes in free energy, enthalpy and entropy of binding respectively. A single binding site model was employed.

mouse IL-36α = target: T3, mouse IL-36α (Mus musculus, UniProt Q9JLA2); experiment: Cross-reactivity to mouse IL-36α; assay type: binding
T3 sequence (Q9JLA2 8-160): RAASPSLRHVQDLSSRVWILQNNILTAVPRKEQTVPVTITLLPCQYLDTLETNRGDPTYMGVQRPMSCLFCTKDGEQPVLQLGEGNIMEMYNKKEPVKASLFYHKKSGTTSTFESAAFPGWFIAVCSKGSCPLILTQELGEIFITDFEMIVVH

[2] = Drug plasma levels / oral exposure in mice; details: mouse, in vivo

Kd (human IL-36γ): 67.6 ± 6 nM | cross-reactivity to mouse IL-36α (mouse IL-36α): lack of species cross-reactivity | oral bioavailability [2]: orally bioavailable
Compound: COC(c1ccccc1)(c1ccccc1)[C@H](Oc1nc(C)cc(-c2ccc(C)c(N)c2)n1)C(=O)O [Compound A-552]
Ki [1]: 31 ± 22 nM | binding / affinity to human IL-36α (human IL-36α): do not bind; also recorded: does not show affinity
